Experimental data published in patent publication US20220348876A1, “METABOLISM GUIDES DEFINITIVE LINEAGE SPECIFICATION DURING ENDOTHELIAL TO HEMATOPOIETIC TRANSITION” (Amniotics AB, priority 2019, published 2022).
Read-outs that look alike come from different tables or passages of the source.

Experiments:
HE cells [1] = experiment: HE cell subculture with compounds, flow cytometry; assay type: cell-based, human; conditions: for HE-derived CD43+GPA+ cell output: day 3 of subculture vs control, UK5099 10 μM, DCA 3 mM
Description: The RB9-CB1 human iPSC line was co-cultured with mouse embryonic fibroblasts (MEFs, Millipore), passaged every six days and processed to form embryoid bodies (EBs) as described previously (Guibentif, C. et al. Cell Reports 19, 10-19 (2017)). The differentiation protocol used in this study was previously described (Ditadi, A. & Sturgeon, C. M. Methods 101, 65-72 (2016)), however, small modifications were made to induce both primitive and definitive hematopoiesis, as indicated below and in FIG. 7, a. Newly-formed EBs were first kept in SFD medium supplemented with 1 ng/ml Activin A (on days 0-2) and 3 μM CHIR99021 (on day 2 only). At day 3, media was switched to “Day 3-SP34” medium supplemented with 1 ng/ml Activin A (on day 3 only) and 3 μM CHIR99021 (on day 3 only) until day 6. On day 6, media was replaced by “Day 6-SP34” medium, until day 8. In some experiments where indicated, to obtain a higher yield of HSC-like cells, EBs were kept until day 10: in this case, EBs were plated onto Matrigel (8 μg/cm^2, Corning)-coated dishes on day 8 and kept until day 10. Media was changed every day, except on days 5 and 7. On day 8 or 10 (as indicated), EBs were singularized with 5-6 rounds of 5-minute incubations with TryPLE Express (Thermo Fisher Scientific). CD34^+ cells were selected using the human CD34 MicroBead kit (Miltenyi Biotec) and stained with CD34-FITC, CD73-PE, VECad-PerCPCy5.5, CD38-PC7, CD184-APC, CD45-AF700, CD43-APCH7, GPA-eF450, CD90-BV605 and the viability marker 7AAD in order to sort HE (CD34^+CD43^−CXCR4^−CD73^−CD90^+VECad^+), EHT (CD34^+CD43^intCXCR4^−CD73^−CD90^+VECad^+) and HSC-like (CD34^+CD43^+CD90^+CD38^−) cells, according to previously described markers (Guibentif, C. et al. Cell Reports 19, 10-19 (2017); Harris, J. M. et al. Blood 121, 2483-2493 (2013) and Schenk, T. et al. Nat Med 18, 605-611 (2012)).
Sorted HE (40,000), EHT (30,000) and HSC-like (5-20,000) cells were plated onto Matrigel (16 μg/cm^2, Corning)-coated 96-well flat bottom plates in HE medium (30) with 1% penicillin-streptomycin and kept in a humidified incubator at 37° C., 5% CO2, 4% O2 overnight. […] Media was changed and drugs were added every 2 days and cells were kept in a humidified incubator at 37° C., 5% CO2, 20% O2 for 6-7 days.
(§1) To measure proliferation, cells were processed with the CellTrace Violet (CTV) kit according to manufacturer's instructions (10-minute incubation) and fluorescence was measured on a BD LSRFortessa. […] Flow cytometry outputs were analyzed on FlowJo Software, with initial gatings on SSC-A/FSC-A, FSC-H/FSC-A, SSC-H/SSC-A and 7-AAD to exclude doublets and dead cells in all experiments.

[2] = tested on: HE, EHT and HSC-like cells; conditions: 100 μM FCCP, all cell types
Description: On days 3 and 6 of subculture, cells were collected after a 2-minute incubation at 37° C. with StemPro Accutase Cell Dissociation Reagent and stained with CD34-FITC, CD14-PE, CD33-PC7, CD11b-APC, CD45-AF700, CD43-APCH7, GPA-eF450, CD90-BV605 and the viability marker 7AAD and fluorescence was measured on a BD LSRII. To measure mitochondrial activity, cells were incubated with Tetramethylrhodamine ethyl ester (TMRE, 20 nM) for 30 minutes at 37° C. Negative controls were incubated with 100 μM FCCP for 30 minutes at 37° C., prior to TMRE staining. […] III and MFI levels—MFI FMO were calculated. […] III. To measure proliferation, cells were processed with the CellTrace Violet (CTV) kit according to manufacturer's instructions (10-minute incubation) and fluorescence was measured on a BD LSRFortessa. To measure EdU incorporation, HE cells were assessed on day 1 or 2 of subculture after 24 h EdU pulses, using Click-iT EdU Flow Cytometry Cell Proliferation Assay (Thermo Fisher Scientific, C10424), according to manufacturer's instructions. Flow cytometry outputs were analyzed on FlowJo Software, with initial gatings on SSC-A/FSC-A, FSC-H/FSC-A, SSC-H/SSC-A and 7-AAD to exclude doublets and dead cells in all experiments.

HSC-like cells = experiment: HSC-like cell subculture with compounds, flow cytometry; assay type: cell-based, human; conditions: day 3, 2-DG 1 mM
EHT cells = experiment: EHT cell subculture with compounds, flow cytometry; assay type: cell-based, human; conditions: EHT cells, day 3; 2-DG 1 mM
Description: The RB9-CB1 human iPSC line was co-cultured with mouse embryonic fibroblasts (MEFs, Millipore), passaged every six days and processed to form embryoid bodies (EBs) as described previously (Guibentif, C. et al. Cell Reports 19, 10-19 (2017)). The differentiation protocol used in this study was previously described (Ditadi, A. & Sturgeon, C. M. Methods 101, 65-72 (2016)), however, small modifications were made to induce both primitive and definitive hematopoiesis, as indicated below and in FIG. 7, a. Newly-formed EBs were first kept in SFD medium supplemented with 1 ng/ml Activin A (on days 0-2) and 3 μM CHIR99021 (on day 2 only). At day 3, media was switched to “Day 3-SP34” medium supplemented with 1 ng/ml Activin A (on day 3 only) and 3 μM CHIR99021 (on day 3 only) until day 6. On day 6, media was replaced by “Day 6-SP34” medium, until day 8. […]
as §1

HE cells [3] = experiment: Lymphoid differentiation assay on OP9-DL1 stroma; assay type: cell-based, human; conditions: 3-day subculture in glutamine-free medium, then 35-day co-culture
Description: Subculture day 3 HE cells cultured in the presence of UK5099 (10 μM), DCA (3 mM), or in glutamine-free medium with DMK (1.75 mM), nucleosides (1×) or NEAAs (1×), as indicated, were collected after a 2-minute incubation at 37° C. with StemPro Accutase Cell Dissociation Reagent and seeded onto 80% confluent OP9-DL1 stroma. Cells were cultured in OP9 medium with SCF (10 ng/ml), FLT3-L (10 ng/ml), IL-2 (5 ng/ml), IL-7 (5 ng/ml, first 15 days only) and IL-15 (10 ng/ml) with passaging onto new OP9-DL1 stroma every week, as described previously (Renoux, V. M. et al. Immunity 43, 394-407 (2015)). At day 35 of co-culture, cells were analyzed on a BD LSRFortessa.

[4] = day 6 of subculture vs control, BPTES 25 μM, 1-AA 4 mM, TCP 300 nM, C646 10 μM, CP 5 μM

**Q.** `O=C(Cc1ccccc1)Nc1nnc(CCSCCc2nnc(NC(=O)Cc3ccccc3)s2)s1` [BPTES] was tested. Which “HE-derived CD43+GPA+ cell output” value (HE cells [1]; BPTES 25 μM, 1-AA 4 mM) did it give?
**A.** sharp decline

**Q.** And the “HE-derived CD43+CD45+ population” value (HE cells [1]; [4])?
**A.** sharp decline

**Q.** For `N#CC(C#N)=NNc1ccc(OC(F)(F)F)cc1` [FCCP, Carbonyl cyanide 4-(trifluoromethoxy)phenylhydrazone], which TMRE signal [2] is on record?
**A.** abrogated the TMRE signal

**Q.** Which “HE-derived CD43+CD45+ population” value (HE cells [1]; [4]) does the source give for `O=C(c1c2ccccc2cc2ccccc12)N1CCC(N2CCC[C@@H](C(=O)N3CCOCC3)C2)CC1` [CP-640186] here?
**A.** had the same effect as DCA

**Q.** With `CC(C)c1c(C(=O)Nc2ccccc2)c(-c2ccccc2)c(-c2ccc(F)cc2)n1CC[C@@H](O)C[C@@H](O)CC(=O)O` [atorvastatin] as the molecule, how does the “effect of DCA on CD43+CD45+ cells” value (HE cells [1]; Ato 0.5 μM in combination with DCA 3 mM) read?
**A.** abrogated the effect of DCA

**Q.** Which “HE-derived CD43+CD45+ population” value (HE cells [1]; [4]) does the source give for `CC1=NN(c2ccc(C(=O)O)cc2)C(=O)/C1=C\c1ccc(-c2cc(C)c(C)cc2[N+](=O)[O-])o1` [C646] here?
**A.** did not have an effect

**Q.** How did the “CD43+GPA+ cell frequency following UK5099 treatment of HE cells” value (HE cells [1]) turn out when `N[C@@H]1C[C@H]1c1ccccc1` (racemic) [TCP, Tranylcypromine] was run?
**A.** no increase

**Q.** What about the “HE-derived CD43+CD45+ population” value (HE cells [1]) of the same molecule?
**A.** more CD43^+CD45^+ cells

**Q.** And the “myeloid differentiation (CD43+CD45+CD33+CD11b+)” value (HE cells [1])?
**A.** specifically increased

**Q.** `CC(N)[PH](=O)O` (stereo not drawn) [1-AA, 1-aminoethylphosphinic acid] was tested. Which “HE-derived CD43+GPA+ cell output” value (HE cells [1]; BPTES 25 μM, 1-AA 4 mM) did it give?
**A.** significant increase

**Q.** And the “levels of total CD43+ cells” value (HE cells [1]; day 6, treated vs untreated)?
**A.** unchanged

**Q.** What about the “HE-derived CD43+CD45+ population” value (HE cells [1]; [4]) of the same molecule?
**A.** significant decrease

**Q.** How did the “generation of the CD43+GPA+ cell population” value (HE cells [1]; day 3, % of the control, 2-DG 1 mM) turn out when `O=CC[C@@H](O)[C@H](O)[C@H](O)CO` [2-DG, 2-Deoxy-D-glucose] was run?
**A.** less than 50%

**Q.** What about the “CD43+ cell output from HE cells” value (HE cells [1]; day 3 of subculture, 2-DG 1 mM) of the same molecule?
**A.** significantly reduced

**Q.** And the “generation of the CD43+CD45+ cell population” value (HE cells [1]; day 6, % of the control, 2-DG 1 mM)?
**A.** less than 50%

**Q.** What about the “proliferation rate (CellTrace Violet)” value (HSC-like cells) of the same molecule?
**A.** significantly reduced

**Q.** What about the “proliferation rate (CellTrace Violet)” value (EHT cells) of the same molecule?
**A.** significantly reduced

**Q.** With `COC(=O)CCC(=O)C(=O)OC` [DMK, dimethyl-ketoglutarate] as the molecule, how does the “CD43+GPA+ population” value (HE cells [1]; HE subcultures without glutamine, days 3 and 6, vs control) read?
**A.** could not rescue

**Q.** And the “proliferation profile of HE cells (CTV)” value (HE cells [1]; glutamine deprivation, day 3, vs control)?
**A.** could not restore

**Q.** And the “percentage of CD43+ cells that have lost CD34 expression” value (HE cells [1]; glutamine-free DMK-treated condition vs control, day 3)?
**A.** significantly decreased

**Q.** And the “rescue of CD43+ cell output from HE cells” value (HE cells [1]; glutamine-free medium, day 3, DMK 1.75 mM)?
**A.** up to 60%

**Q.** And the “percentages of CD43+CD45+ cells” value (HE cells [1]; glutamine-free medium, day 6, compared to the control)?
**A.** significant increase

**Q.** What about the “NK cell differentiation (CD45+CD56+)” value (HE cells [3]) of the same molecule?
**A.** allowed efficient NK cell differentiation

**Q.** How did the “emergence of CD43+ hematopoietic cells” value (HE cells [1]; TSA 60 nM, day 3) turn out when `CC(/C=C/C(=O)NO)=C\[C@@H](C)C(=O)c1ccc(N(C)C)cc1` [TSA, Trichostatin A] was run?
**A.** impaired the emergence
